Measurements published in ChEMBL document CHEMBL1142512, “Synthesis, in vitro, and in silico evaluation of organometallic technetium and rhenium thymidine complexes with retained substrate activity toward human thymidine kinase type 1” (J Med Chem, 2008).

Key:
[1] = target: T1, Thymidine kinase, cytosolic (Homo sapiens) (UniProt P04183); assay: Inhibition of human recombinant TK1 phosphorylation after 15 mins by pyruvate kinase/lactate dehydrogenase coupled assay relative to thymidine
T1 sequence (whole entry): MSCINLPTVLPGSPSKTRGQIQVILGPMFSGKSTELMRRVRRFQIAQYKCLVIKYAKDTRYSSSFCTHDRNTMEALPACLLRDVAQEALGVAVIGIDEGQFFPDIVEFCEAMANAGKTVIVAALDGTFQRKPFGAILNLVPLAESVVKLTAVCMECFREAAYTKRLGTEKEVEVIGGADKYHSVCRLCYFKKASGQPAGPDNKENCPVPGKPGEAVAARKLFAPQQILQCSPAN

SK-N-MC = assay: Drug uptake in human SK-N-MC cells at 111 kBq after 2 hrs by […]; format: ADME, cell-based

SMILES	inhibition [1]	Drug uptake (SK-N-MC)
C#CCn1c(=O)c(C)cn([C@H]2C[C@H](O)[C@@H](CO)O2)c1=O	86.7%	
[3H]C([3H])([3H])c1cn([C@H]2C[C@H](O)[C@@H](CO)O2)c(=O)[nH]c1=O		29 %ID/mg/ml
